Read-outs that look alike come from different tables or passages of the source. Values belong to the molecule of their own block, whether it stands above or below them.
Legend:
P. falciparum 3D7 = assay: [3H]-hypoxanthine growth inhibition, modified HCO3- or O2; type: cell-based; settings: for IC50: Plasmodium falciparum
[1] = tested on: P. falciparum 3D7 trophozoites; assay: Metabolomic fingerprint profiling LC-MS; type: cell-based, Plasmodium falciparum; set-up: UDP-D-glucose / ADP-D-glucose: unit not given here; settings: for Acetyllysine / N-acetyl-L-ornithine / N-carbamoyl-L-aspartate / NADPH / dAMP / dCMP / dTDP / dTMP / dTTP / dihydroorotate / orotate / DLH / DLS/SDL/SID / PD / PEE / PVNF / 3-phosphoglycerate / ADP-D-glucose / ATP / CDP / D-sedoheptulose-1/7-phosphate / FAD / GMP / NAD+ / NADP+ / Octoluse Bisphosphate / Pyroglutamic acid / UDP-D-glucose / UDP-D-glucuronate / UDP-N-acetyl-glucosamine / UDP / UMP / UTP / a-ketoglutarate / citrate/isocitrate / cytidine / dATP / dGMP/AMP / fumarate / glucose-1/6-phosphate / glycerate / guanine / guanosine / hypoxanthine / indole / inosine / nicotinate / ornithine / phosphoenolpyruvate / pyruvate / ribose-phosphate / sarcosine/alanine / sn-glycerol-3-phosphate / succinate/methylmalonic acid / uridine / xanthosine: S2 Table Metabolomics; for Acetyllysine: metabolite Acetyllysine; for N-acetyl-L-ornithine: metabolite N-acetyl-L-ornithine; for N-carbamoyl-L-aspartate: metabolite N-carbamoyl-L-aspartate; for NADPH: metabolite NADPH; for dAMP: metabolite dAMP; for dCMP: metabolite dCMP; for dTDP: metabolite dTDP; for dTMP: metabolite dTMP; for dTTP: metabolite dTTP; for dihydroorotate: metabolite dihydroorotate; for orotate: metabolite orotate; for DLH: peptide DLH; for DLS/SDL/SID: peptide DLS/SDL/SID; for PD: peptide PD; for PEE: peptide PEE; for PVNF: peptide PVNF; for 3-phosphoglycerate: metabolite 3-phosphoglycerate; for ADP-D-glucose: metabolite ADP-D-glucose; for ATP: metabolite ATP; for CDP: metabolite CDP; for CDP / D-sedoheptulose-1/7-phosphate / GMP / Octoluse Bisphosphate / UDP / UMP / UTP / citrate/isocitrate / dGMP/AMP / fumarate / glucose-1/6-phosphate / glycerate / guanine / guanosine / inosine / pyruvate / sarcosine/alanine / succinate/methylmalonic acid / uridine / xanthosine: change in metabolite level after compound treatment; for D-sedoheptulose-1/7-phosphate: metabolite D-sedoheptulose-1/7-phosphate; for FAD: metabolite FAD; for GMP: metabolite GMP; for NAD+: metabolite NAD+; for NADP+: metabolite NADP+; for Octoluse Bisphosphate: metabolite Octoluse Bisphosphate; for Pyroglutamic acid: metabolite Pyroglutamic acid; for UDP-D-glucose: metabolite UDP-D-glucose; for UDP-D-glucuronate: metabolite UDP-D-glucuronate; for UDP-N-acetyl-glucosamine: metabolite UDP-N-acetyl-glucosamine; for UDP: metabolite UDP; for UMP: metabolite UMP; for UTP: metabolite UTP; for a-ketoglutarate: metabolite a-ketoglutarate; for citrate/isocitrate: metabolite citrate/isocitrate; for cytidine: metabolite cytidine; for dATP: metabolite dATP; for dGMP/AMP: metabolite dGMP/AMP; for fumarate: metabolite fumarate; for glucose-1/6-phosphate: metabolite glucose-1/6-phosphate; for glycerate: metabolite glycerate; for guanine: metabolite guanine; for guanosine: metabolite guanosine; for hypoxanthine: metabolite hypoxanthine; for indole: metabolite indole; for inosine: metabolite inosine; for 2_3-Diphosphoglyceric acid / 4-phosphopantothenate / 6-phospho-D-gluconate / FMN / IMP / Pyrophosphate / Sedoheptoluse bisphosphate / cyclic-AMP / glutathione disulfide / lactate / myo-inositol: metabolite level change after treatment; for nicotinate: metabolite nicotinate; for ornithine: metabolite ornithine; for phosphoenolpyruvate: metabolite phosphoenolpyruvate; for pyruvate: metabolite pyruvate; for ribose-phosphate: metabolite ribose-phosphate; for sarcosine/alanine: metabolite sarcosine/alanine; for sn-glycerol-3-phosphate: metabolite sn-glycerol-3-phosphate; for succinate/methylmalonic acid: metabolite succinate/methylmalonic acid; for uridine: metabolite uridine; for xanthosine: metabolite xanthosine
P. falciparum = assay: EC50 listed in S2 Table Metabolomics (used to set the concentration tested); type: cell-based; settings: Plasmodium falciparum; EC50 used for Factor_XEC50 in metabolomics; read-out: EC50_nM
[2] = 3D7, read-out: P. falciparum 3D7 IC50 1% O2, 1% O2 hypoxia
[3] = 3D7, read-out: P. falciparum 3D7 IC50 5% O2

- EC50 (P. falciparum): 85.7 nM
SMILES: Cc1cc(C)cc(Nc2cc(C)nc3nc(C(F)(F)F)nn23)c1 [MMV011259]
- fold change (IC50reduced/IC50normal) (P. falciparum 3D7): 2.2
- IC50 (P. falciparum 3D7; 3D7, read-out: P. falciparum 3D7 IC50 HCO3- (2g/L), standard media): 59 nM
- IC50 (P. falciparum 3D7; 3D7, HCO3- reduced media, read-out: P. falciparum 3D7 IC50 HCO3- reduced): 132 nM
- Acetyllysine [1]: -0.3746
- N-acetyl-L-ornithine [1]: -0.3462
- N-carbamoyl-L-aspartate [1]: 3.644
- NADPH [1]: -0.3366
- dAMP [1]: -0.7598
- dCMP [1]: -0.2996
- dTDP [1]: -1.147
- dTMP [1]: -1.715
- dTTP [1]: -1.159
- dihydroorotate [1]: 4.069
- orotate [1]: -1.5889
- DLH [1]: -0.4322
- DLS/SDL/SID [1]: -0.5334
- PD [1]: -0.3116
- PEE [1]: -0.461
- PVNF [1]: -0.5009
- 3-phosphoglycerate [1]: -0.8854
- ADP-D-glucose [1]: -0.2124
- ATP [1]: -0.1449
- CDP [1]: -0.8411
- D-sedoheptulose-1/7-phosphate [1]: 0.2305
- FAD [1]: -0.12
- GMP [1]: 0.1977
- NAD+ [1]: -0.2042
- NADP+ [1]: -0.294
- Octoluse Bisphosphate [1]: -0.4132
- Pyroglutamic acid [1]: -0.07042
- UDP-D-glucose [1]: -0.2997
- UDP-D-glucuronate [1]: -0.2701
- UDP-N-acetyl-glucosamine [1]: -0.5126
- UDP [1]: -1.399
- UMP [1]: -1.28
- UTP [1]: -1.133
- a-ketoglutarate [1]: -0.631
- citrate/isocitrate [1]: -1.3117
- cytidine [1]: 0.1757
- dATP [1]: 0.0538
- dGMP/AMP [1]: -0.551
- fumarate [1]: -0.9126
- glucose-1/6-phosphate [1]: -0.8385
- glycerate [1]: -1.011
- guanine [1]: -0.4133
- guanosine [1]: -0.4081
- hypoxanthine [1]: -0.3413
- indole [1]: -0.1801
- inosine [1]: -0.6501
- 2_3-Diphosphoglyceric acid [1]: -0.2003
- 4-phosphopantothenate [1]: -0.5735
- 6-phospho-D-gluconate [1]: -1.0674
- FMN [1]: -0.3875
- IMP [1]: -0.2517
- Pyrophosphate [1]: -0.0001746
- Sedoheptoluse bisphosphate [1]: -0.416
- cyclic-AMP [1]: -0.9316
- glutathione disulfide [1]: -0.2721
- lactate [1]: -0.3904
- myo-inositol [1]: -0.254
- nicotinate [1]: -0.9132
- ornithine [1]: -0.1147
- phosphoenolpyruvate [1]: -0.7531
- pyruvate [1]: -0.8729
- ribose-phosphate [1]: -0.4441
- sarcosine/alanine [1]: -0.2762
- sn-glycerol-3-phosphate [1]: -0.2294
- succinate/methylmalonic acid [1]: -0.3522
- uridine [1]: -1.619
- xanthosine [1]: -0.6868

- EC50 (P. falciparum): 212 nM
SMILES: Cc1cc(Nc2ccc(Cl)cc2)n2nc(C(F)(F)F)nc2n1 [MMV011256]
- fold change (IC50normal/ IC50hypoxia) (P. falciparum 3D7): 5.0
- IC50 (P. falciparum 3D7; [2]): 70 nM
- IC50 (P. falciparum 3D7; [3]): 349 nM
- Acetyllysine [1]: -0.5963
- N-acetyl-L-ornithine [1]: -0.507
- N-carbamoyl-L-aspartate [1]: 4.681
- NADPH [1]: 1.178
- dAMP [1]: -1.417
- dCMP [1]: 0.2248
- dTDP [1]: -0.9712
- dTMP [1]: -0.998
- dTTP [1]: -0.8663
- dihydroorotate [1]: 5.399
- orotate [1]: -0.2345
- DLH [1]: -0.3185
- DLS/SDL/SID [1]: -0.4128
- PD [1]: 0.2516
- PEE [1]: -0.4695
- PVNF [1]: -1.475
- 3-phosphoglycerate [1]: 0.08815
- ADP-D-glucose [1]: 0.5309
- ATP [1]: -0.05125
- CDP [1]: -0.6896
- D-sedoheptulose-1/7-phosphate [1]: 0.1853
- FAD [1]: 0.084
- GMP [1]: 0.2583
- NAD+ [1]: 0.00935
- NADP+ [1]: 0.5726
- Octoluse Bisphosphate [1]: 0.02106
- Pyroglutamic acid [1]: -0.3979
- UDP-D-glucose [1]: 0.01111
- UDP-D-glucuronate [1]: -0.02444
- UDP-N-acetyl-glucosamine [1]: -0.1642
- UDP [1]: -0.997
- UMP [1]: -0.7924
- UTP [1]: -1.308
- a-ketoglutarate [1]: -0.5125
- citrate/isocitrate [1]: -0.4219
- cytidine [1]: -0.1943
- dATP [1]: 0.3626
- dGMP/AMP [1]: 0.01292
- fumarate [1]: -0.2283
- glucose-1/6-phosphate [1]: -0.259
- glycerate [1]: -0.6701
- guanine [1]: 0.06677
- guanosine [1]: 0.3651
- hypoxanthine [1]: -0.6973
- indole [1]: -0.3061
- inosine [1]: -0.4425
- 2_3-Diphosphoglyceric acid [1]: 0.2246
- 4-phosphopantothenate [1]: -0.3914
- 6-phospho-D-gluconate [1]: 0.1976
- FMN [1]: -0.1065
- IMP [1]: 0.1475
- Pyrophosphate [1]: 0.2465
- Sedoheptoluse bisphosphate [1]: 0.08943
- cyclic-AMP [1]: -0.1063
- glutathione disulfide [1]: 0.192
- lactate [1]: -0.653
- myo-inositol [1]: -1.111
- nicotinate [1]: -0.2929
- ornithine [1]: 0.09761
- phosphoenolpyruvate [1]: 0.0459
- pyruvate [1]: -0.6078
- ribose-phosphate [1]: -0.1179
- sarcosine/alanine [1]: 0.2817
- sn-glycerol-3-phosphate [1]: -0.0008256
- succinate/methylmalonic acid [1]: 0.03166
- uridine [1]: -0.902
- xanthosine [1]: 0.002012

SMILES: CCC(c1ccccc1)c1nn2c(-c3cccs3)nnc2s1 (stereo not drawn) [MMV665876]
- fold change (IC50normal/ IC50hypoxia) (P. falciparum 3D7): 6.3
- IC50 (P. falciparum 3D7; [2]): 66 nM
- IC50 (P. falciparum 3D7; [3]): 415 nM
- Acetyllysine [1]: 0.283
- N-acetyl-L-ornithine [1]: 0.02574
- N-carbamoyl-L-aspartate [1]: 2.073
- NADPH [1]: -0.7617
- dAMP [1]: 0.5954
- dCMP [1]: -0.9145
- dTDP [1]: -1.527
- dTMP [1]: -1.62
- dTTP [1]: -1.561
- dihydroorotate [1]: 2.966
- orotate [1]: -1.924
- DLH [1]: -0.4979
- DLS/SDL/SID [1]: -0.4746
- PD [1]: 0.3937
- PEE [1]: -0.2764
- PVNF [1]: -2.041
- 3-phosphoglycerate [1]: -0.3031
- ADP-D-glucose [1]: -0.09411
- ATP [1]: -0.3796
- CDP [1]: -0.8385
- D-sedoheptulose-1/7-phosphate [1]: 0.09562
- FAD [1]: 0.1414
- GMP [1]: -0.3833
- NAD+ [1]: -0.3556
- NADP+ [1]: -0.2262
- Octoluse Bisphosphate [1]: -0.1952
- Pyroglutamic acid [1]: -0.02059
- UDP-D-glucose [1]: -0.01878
- UDP-D-glucuronate [1]: -0.4807
- UDP-N-acetyl-glucosamine [1]: -0.2752
- UDP [1]: -1.799
- UMP [1]: -3.164
- UTP [1]: -2.138
- a-ketoglutarate [1]: -0.08894
- citrate/isocitrate [1]: -0.02094
- cytidine [1]: 0.3021
- dATP [1]: 0.315
- dGMP/AMP [1]: 0.04047
- fumarate [1]: 0.2534
- glucose-1/6-phosphate [1]: -0.2061
- glycerate [1]: 0.1397
- guanine [1]: 0.4421
- guanosine [1]: 0.6466
- hypoxanthine [1]: -0.006623
- indole [1]: 0.04311
- inosine [1]: 0.2618
- 2_3-Diphosphoglyceric acid [1]: -0.3467
- 4-phosphopantothenate [1]: -0.1285
- 6-phospho-D-gluconate [1]: 0.112
- FMN [1]: -0.3509
- IMP [1]: 0.3458
- Pyrophosphate [1]: -0.3973
- Sedoheptoluse bisphosphate [1]: 0.1676
- cyclic-AMP [1]: -0.04329
- glutathione disulfide [1]: 0.137
- lactate [1]: -0.1203
- myo-inositol [1]: 0.267
- nicotinate [1]: 0.1101
- ornithine [1]: 0.02403
- phosphoenolpyruvate [1]: -0.2926
- pyruvate [1]: 0.1322
- ribose-phosphate [1]: -0.01159
- sarcosine/alanine [1]: 0.3044
- sn-glycerol-3-phosphate [1]: -0.401
- succinate/methylmalonic acid [1]: 0.1519
- uridine [1]: -0.6108
- xanthosine [1]: 0.3254
- EC50 (P. falciparum): 259 nM

— paper PMC4965013, “Open Source Drug Discovery with the Malaria Box Compound Collection for Neglected Diseases and Beyond” (PLoS Pathogens, 2016)
